According to article PMC7469199, “Immunosuppressive Activities of Novel PLA2 Inhibitors from Xenorhabdus hominickii, an Entomopathogenic Bacterium” (Insects, 2020):
pIC50: −log10 of the molar value. Read-outs that look alike come from different tables or passages of the source.

Tests used:
mushroom tyrosinase = target: mushroom tyrosinase; parameters: method as in PMID 14714727; conditions: cited from earlier work
S. exigua larvae [1] = assay: Feeding toxicity, leaf-dipping method; assay type: in vivo, Spodoptera exigua; conditions: for Insecticidal Activities, Feeding: median lethal concentration by Probit analysis, leaf-dipping
Protocol: (§1) For the virulence test of X. hominickii, 24 h-cultured cells (10^8 cfu/mL) were diluted with sterile PBS. After surface sterilization with 95% ethanol, each L5 larva was injected with 1 µL of test compound (1 µg/larva) along with bacterial suspension (10^2 cfu/larva). Injection was performed through the first abdominal proleg using a micro syringe. Injected larvae were incubated at room temperature individually in 9 cm Petri dishes. For oral toxicity assay of B. thuringiensis, a small piece (2 × 2 cm) of Chinese cabbage was dipped in 500 ppm of Bt or a mixture of Bt (500 ppm) with 500 ppm of test chemical for 5 min. After a brief (5 min) drying under a dark condition, the treated leaf was supplied to individual test larva in 9 cm Petri dish for 24 h at room temperature. After 24 h, larvae were fed with fresh cabbage leaves. Each treatment was replicated three times with 10 larvae per replication. […] Larvae were considered dead if they were unable to move in a coordinated manner when prodded with a blunt probe.
(§2) All data for continuous variables were subjected to one-way analysis of variance (ANOVA) using PROG GLM in SAS program. Mortality data were subjected to arcsine transformation and used for ANOVA. Means were compared with the least significant difference (LSD) test at Type I error of 0.05. Median toxicity values such as median lethal dose (LD50), median lethal concentration (LC50), median lethal time (LT50), and median inhibition concentrations (IC50) were calculated by Probit analysis using EPA Probit Analysis Program, ver. 1.5 (U.S. Environmental Protection Agency, Washington, DC, USA).
These compounds were also tested for their feeding toxicities using a leaf-dipping method.

[2] = system: hemocyte PLA2 of S. exigua; assay: Nonspecific (total) hemocyte PLA2 activity, pyrene-labeled phospholipid fluorometric assay; assay type: biochemical, Spodoptera exigua; conditions: for Median Inhibitory Concentrations (IC50), Total PLA2: hemocyte extract of S. exigua L5 larvae, synthetic compounds
Protocol: Hemocyte PLA2 activity was fluorometrically determined with a pyrene-labeled phospholipid substrate using a spectrofluorometer (VICTOR multi-label plate reader, PerkinElmer, Waltham, MA, USA) at excitation and emission wavelengths of 345 and 398 nm, respectively. For measuring PLA2 activity, hemolymph was collected from ~10 L5 larvae. Hemocytes and plasma were separated by centrifugation at 800× g for 3 min at 4 °C. Hemocytes were then homogenized in 500 µL of PBS with a polytron (Ultra-Turrax T8, Ika Laboratory, Funkentshort, Germany). After centrifugation at 14,000× g for 5 min at 4 °C, protein concentration of the supernatant was determined by Bradford assay using bovine serum albumin (BSA) as the standard. The reaction mixture was prepared in a 96-well microplate by adding 129 μL of 50 mM Tris buffer (pH 7.0), 2 μL of 1 M CaCl2, and 2 μL of 10% BSA into each well. A sample solution consisted of 5 μL of test bacterial metabolites and 10 μL of hemocyte enzyme extract ([…]). The plate was then incubated at room temperature for 30 min. Enzyme reaction was then initiated by adding pyrene-labeled PL substrate (2 μL) to the reaction mixture.

S. exigua larvae [3] = assay: Insecticidal activity by injection; assay type: in vivo, Spodoptera exigua; conditions: for Insecticidal Activities, Injection: median lethal dose by Probit analysis, S. exigua larvae
Protocol: as §2, with “USA). […]” for “USA).”

[4] = system: hemocyte nodule formation; assay: Nodulation assay after E. coli injection in L5 larvae; assay type: in vivo, Spodoptera exigua; conditions: for Median Inhibitory Concentration (IC50), Nodulation: injected into L5 larvae with E. coli, nodules counted after 8 h
Protocol: To assess nodule formation, immune challenge was performed by injecting 3 µL of Escherichia coli Top10 (10^4 cells/larva) (Invitrogen, Madison, WI, USA) through the abdominal proleg of L5 larvae using a microsyringe (Hamilton, Reno, NV, USA). After incubating at 25 °C for 8 h, test insects were dissected to count the number of melanized nodules under a stereo microscope (Stemi SV11, Zeiss, Jena, Germany) at 50× magnification. For chemical test, 1 µL aliquot of test chemical at different concentrations was injected into each larva along with E. coli. AA was injected at 10 μg per larva. Each treatment was independently replicated five times.

secretory PLA2 (sPLA2) = assay: Secretory PLA2 (sPLA2) activity; assay type: biochemical, Spodoptera exigua; conditions: for Median Inhibitory Concentrations (IC50), sPLA2: S. exigua, synthetic compounds
Protocol: (§3) To characterize PLA2 inhibition by test chemicals, activities of two different PLA2s [secretory PLA2 (sPLA2) and cytosolic PLA2 (cPLA2)] were assessed with methods described by Vatanparast et al..

rabbits = conditions: cited from earlier work
Sf9 cells = assay: Cytotoxicity test (MTT); assay type: cell-based; conditions: for Cytotoxicity (MIC, minimum inhibitory concentration): MTT, 24 h at 28 °C
Protocol: Cytotoxicity of each secondary metabolite was evaluated by 3-(4,5 dimethylthiazol-2-yl)-2,5-diphenyl tetrazolium bromide (MTT) assay according to the method described by Mollah et al.. with a slight modification. Briefly, Sf9 cells (1.2 × 10^4 cells in 200 μL of TC-100 medium) were seeded into each 96-well. After adding each test chemical (2.5 μL in DMSO), the plate was incubated at 28 °C for 24 h. Control cells were treated with 2.5 μL of DMSO. After 24 h incubation, 10 μL of MTT (5 mg/mL in PBS) was added to each well and cells were cultured for another 4 h at 28 °C. Formazan granules formed in viable cells were dissolved in 50 μL of DMSO. Absorbance was then measured at 540 nm using a microplate reader (Victor Multilabel Plate Reader, PerkinElmer, Waltham, MA, USA).

[5] = system: hemocyte phagocytosis of S. exigua; assay: Phagocytosis assay with FITC-labeled E. coli in L5 larvae; assay type: in vivo, Spodoptera exigua; conditions: for Median Inhibitory Concentration (IC50), Phagocytosis: injected into L5 larvae with FITC-labeled E. coli
Protocol: For in vivo phagocytosis assay, test chemical (1 µL) and FITC-labeled E. coli (5 µL, 5 × 10^4 cells/µL) were injected to L5 larva. Hemolymph (50 µL) was collected at 15 min after injection and mixed with 50 µL of ice cold ACB. After centrifugation at 700 × g for 3 min at 4 °C, the supernatant plasma was replaced with 100 µL of TC-100 insect cell culture medium (Welgene, Daegu, Korea). Hemocyte suspension (10 µL) was placed onto a slide and over laid with 10 µL glycerol (50%, v/v). Hemocytes undergoing phagocytosis were determined by fluorescence-emitting cells under a fluorescence microscope (Leica, Wetzlar, Germany) at 40× magnification. For in vitro phagocytosis, hemocyte suspension and labeled bacteria mixture (30 µL) were incubated in a dark place for 1 h at room temperature. Hemocytes were then washed three times with PBS by centrifugation at 700× g for 2 min at 4 °C and finally resuspended in TC-100 medium. This hemocyte suspension was observed under the fluorescence microscope in FITC or DIC mode after forming monolayers on glass slides.

rats = conditions: cited from earlier work
cytosolic PLA2 (cPLA2) = assay: Cytosolic PLA2 (cPLA2) activity; assay type: biochemical, Spodoptera exigua; conditions: for Median Inhibitory Concentrations (IC50), cPLA2: S. exigua, synthetic compounds
Protocol: as §3

mammals = conditions: oral administration; cited from earlier work
S. exigua larvae [6] = assay: Effect on pathogenicity of X. hominickii (co-injection); assay type: in vivo, Spodoptera exigua; conditions: L5 larvae injected with Xh 10^2 cfu/larva along with inhibitor (5 µg/larva Fig. 7A; 2 µg/larva Fig. S6); 4 days after treatment
Protocol: as §1, with “After surface sterilization with 95% ethanol, each L5 larva was injected with 1 µL of test compound (1 µg/larva) along with bacterial suspension (10^2 cfu/larva).” left out

S. exigua larvae [7] = assay: Effect on pathogenicity of Bacillus thuringiensis (oral, leaf dipping); assay type: in vivo, Spodoptera exigua; conditions: cabbage leaf dipped in Bt 500 ppm mixed with inhibitor 500 ppm; 4 days after treatment
Protocol: as §1

[8] = reference not printed with the value, next sentence cites ref 48

| SMILES | Insecticidal Activities, Feeding (S. exigua larvae [1]) | Median Inhibitory Concentrations (IC50), Total PLA2 [2] | Insecticidal Activities, Injection (S. exigua larvae [3]) | Median Inhibitory Concentration (IC50), Nodulation [4] | Median Inhibitory Concentrations (IC50), sPLA2 (secretory PLA2 (sPLA2)) | Cytotoxicity (MIC, minimum inhibitory concentration) (Sf9 cells) | Median Inhibitory Concentration (IC50), Phagocytosis [5] | Median Inhibitory Concentrations (IC50), cPLA2 (cytosolic PLA2 (cPLA2)) | further results |
| --- | --- | --- | --- | --- | --- | --- | --- | --- | --- |
| N#Cc1ccc(C(=O)O)cc1 [4-cyanobenzoic acid] |  |  |  |  |  |  |  |  | pIC50 (mushroom tyrosinase; diphenolase activity of mushroom tyrosinase, read-out: IC50 for diphenolase): 2.85; pIC50 (mushroom tyrosinase; monophenolase activity of mushroom tyrosinase, read-out: IC50 for monophenolase): 2.61 |
| CCCCC(CC)COC(=O)c1ccccc1C(=O)OCC(CC)CCCC (centres unmarked) [BEP, bis(2-ethylhexyl) phthalate] | 2679.58 ± 60.58 µg·days/mL | 0.17 ± 0.01 cd ^2 µg/mL | 34.88 ± 2.08 bc µg/larva | 1.0 ± 0.11 c ng/larva | 0.07 ± 0.01 ef µg/mL | 0.30 ± 0.01 d ^3 µg/mL | 1.50 ± 0.22 d ^2 ng/larva | 0.09 ± 0.01 µg·days/mL | Potency for inhibiting sPLA2 (in words) (secretory PLA2 (sPLA2); based on IC50 values): highly potent; Acute toxicity, dermal (rabbits; dermal application): 24 g/kg; Acute toxicity, oral (rats; oral administration): 30 g/kg |
| CCCCNCCCC [DBA, dibutylamine] | 2969.46 ± 50.56 c µg/mL | 0.18 ± 0.02 c µg/mL | 38.77 ± 3.26 b µg/larva | 0.71 ± 0.05 d ng/larva | 0.11 ± 0.02 de µg/mL | 0.80 ± 0.03 b µg/mL | 5.0 ± 0.58 c ng/larva | 0.19 ± 0.02 c µg/mL | Acute dermal toxicity (LD50) (rabbits; [8]): 7680 mg/kg; Acute oral toxicity (LD50) (rats; [8]): 1890 mg/kg |
| O=C1NC(=O)c2ccccc21 [PM, phthalimide] | 2150.66 ± 50.07 f µg/mL | 0.05 ± 0.007 e µg/mL | 22.11 ± 2.69 d µg/larva | 0.20 ± 0.02 f ng/larva | 0.17 ± 0.01 µg·days/mL | 0.1 ± 0.01 f µg/mL | 0.40 ± 0.05f ng/larva | 0.04 ± 0.003 f µg/mL | Feeding (oral) toxicity (in words) (S. exigua larvae [1]; leaf-dipping method): most potent; Inhibitory activity against hemocyte PLA2 (in words) ([2]; S. exigua hemocyte PLA2, extracts, fractions or synthetic compounds): most potent; Acute mammalian toxicity LD50 (mammals): > 5000 mg/kg; Killing of larvae after injection (in words) (S. exigua larvae [3]; individually injected to S. exigua larvae): most potent; Effect on X. hominickii pathogenicity / insecticidal activity (S. exigua larvae [6]): significantly (p < 0.05) increased; Effect on B. thuringiensis insecticidal activity (S. exigua larvae [7]): significantly (p < 0.05) increased; Inhibition of nodule formation (in words) ([4]; S. exigua L5 larvae, E. coli challenge): high potency; Concentration inducing cytotoxicity (Sf9 cells): less than 1 µg/mL; Inhibition of phagocytosis (in words) ([5]; S. exigua hemocytes): highly potent; Potency for inhibiting cPLA2 (in words) (cytosolic PLA2 (cPLA2); based on IC50 values): highly potent |
